SMILES strings stand for the structures.

The test deals with T1, Farnesyltransferase (Saccharomyces cerevisiae S288c, UniProt P22007+P29703).
T1 sequence (P29703 whole entry): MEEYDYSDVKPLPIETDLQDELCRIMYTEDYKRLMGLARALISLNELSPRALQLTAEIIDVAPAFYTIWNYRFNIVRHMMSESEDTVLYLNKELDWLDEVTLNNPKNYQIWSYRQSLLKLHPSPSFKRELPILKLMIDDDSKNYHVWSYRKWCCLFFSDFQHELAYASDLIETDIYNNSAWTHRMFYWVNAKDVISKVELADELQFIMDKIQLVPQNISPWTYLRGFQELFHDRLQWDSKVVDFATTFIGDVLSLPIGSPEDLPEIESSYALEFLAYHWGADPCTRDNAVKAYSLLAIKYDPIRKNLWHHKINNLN
T1 sequence (P22007 whole entry): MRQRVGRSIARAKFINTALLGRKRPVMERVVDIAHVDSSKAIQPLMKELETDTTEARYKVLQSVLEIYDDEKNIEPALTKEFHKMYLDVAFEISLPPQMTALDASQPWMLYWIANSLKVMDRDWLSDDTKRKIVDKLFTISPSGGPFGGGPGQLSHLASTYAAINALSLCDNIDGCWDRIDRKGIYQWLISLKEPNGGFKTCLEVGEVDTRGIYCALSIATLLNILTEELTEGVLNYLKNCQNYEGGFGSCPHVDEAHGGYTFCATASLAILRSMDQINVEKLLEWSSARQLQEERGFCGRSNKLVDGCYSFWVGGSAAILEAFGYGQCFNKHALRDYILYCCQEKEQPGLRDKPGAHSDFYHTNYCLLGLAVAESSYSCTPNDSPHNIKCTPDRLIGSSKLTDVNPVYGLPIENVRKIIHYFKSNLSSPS
Nature of the test: Inhibition of yeast Farnesyl transferase. The test is classed as protein-complex assay.
As a reminder, the IC50 is the concentration that gives 50% inhibition. A higher IC50 goes with weaker potency in that assay. By Ki is commonly meant the dissociation constant of the complex between target and ligand, obtained from inhibition or displacement. Low readings indicate a stronger hold on the target, high ones a looser hold on the target. In turn, `C/C(=C\COP(=O)(O)OP(=O)(O)O)COC(=O)c1cccc(C(=O)c2ccccc2)c1` showed an IC50 of 2000 nM and a Ki of 960 nM. For `C/C(=C\COP(=O)(O)OP(=O)(O)O)CC/C=C(\C)COC(=O)c1cccc(C(=O)c2ccccc2)c1`, in that order: 2300 nM and 380 nM.

Turning to `C/C(=C\COP(=O)(O)OP(=O)(O)O)CC/C=C(\C)CN1C(=O)c2ccccc2C1=O`, the IC50 worked out at 10000 nM. In the case of `C/C(=C\COP(=O)(O)OP(=O)(O)O)CNC(=O)c1cccc(C(=O)c2ccccc2)c1`, half-maximal inhibition (IC50) was put at 37000 nM and the affinity corresponds to a Ki of 6000 nM.

As to `C/C(=C\COP(=O)(O)OP(=O)(O)O)CC/C=C(\C)CNC(=O)c1cccc(C(=O)c2ccccc2)c1`, the IC50 was 3700 nM and the affinity, expressed as Ki, was 700 nM. In general, Kd refers to the free concentration of one partner at which half of the binding sites on the other are occupied at equilibrium, for simple one-to-one binding. Regarding `CC(C)=CCC/C(C)=C/CC/C(C)=C/CO[P@@](=O)(O)OP(=O)(O)O` [FARNESYL DIPHOSPHATE], the Kd is 75 nM.

The values above are taken from ChEMBL document CHEMBL1130507, “Synthesis and evaluation of benzophenone-based photoaffinity labeling analogs of prenyl pyrophosphates containing stable amide linkages” (Bioorg Med Chem Lett, 1997).
